Source: PubChem BioAssay AID1963874 (Molecular Pharmacology Branch, DTP, NCI, 2024)

Tested on: 253994-281-T-J1-PDC KRAS-mutant spheroids with HUVEC/MSC, viability
Assay: Anticancer human tumor 253994-281-T-J1-PDC patient-derived colorectal carcinoma cell line growth inhibition [KRAS2]
Settings: for IC50: curve of first compound; for viability, T/C: stronger effect = lower value
Procedure, shortened: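 KRAS-mutant tumor cells were grown as spheroids with HUVEC endothelial cells and human MSCs as stroma. Targeted agents were tested alone and with KRAS pathway inhibitors. Doses started at or near clinical Cmax, or 10 microM, descending half-log.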
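Further: spheroids exposed to agents for seven days before readout.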
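Wherever viability, T/C is given: percent of DMSO vehicle control viability.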

## CC(=O)Nc1cccc(-n2c(=O)n(C3CC3)c(=O)c3c(Nc4ccc(I)cc4F)n(C)c(=O)c(C)c32)c1 + C=CC(=O)N1CCN(c2nc(=O)n(-c3c(C)ccnc3C(C)C)c3nc(-c4c(O)cccc4F)c(F)cc23)C(C)C1
Second compound 0.1 µM
  IC50: 1.2 nM
Second compound 0.316 µM
  IC50: 1.03 nM
Second compound 1 µM
  IC50: 1.5 nM
Second compound 3.16 µM
  IC50: 1.97 nM
Second compound 10 µM
  IC50: 1.07 nM
Second compound 0.1 µM, first compound 0.0001 µM
  viability, T/C: 106%
Second compound 0.1 µM, first compound 0.000316 µM
  viability, T/C: 91.9%
Second compound 0.1 µM, first compound 0.001 µM
  viability, T/C: 47%
Second compound 0.1 µM, first compound 0.00316 µM
  viability, T/C: 31.8%
Second compound 0.1 µM, first compound 0.01 µM
  viability, T/C: 18.2%
Second compound 0.1 µM, first compound 0.0316 µM
  viability, T/C: 5.7%
Second compound 0.316 µM, first compound 0.0001 µM
  viability, T/C: 124%
Second compound 0.316 µM, first compound 0.000316 µM
  viability, T/C: 77.7%
Second compound 0.316 µM, first compound 0.001 µM
  viability, T/C: 54.3%
Second compound 0.316 µM, first compound 0.00316 µM
  viability, T/C: 28.4%
Second compound 0.316 µM, first compound 0.01 µM
  viability, T/C: 17.4%
Second compound 0.316 µM, first compound 0.0316 µM
  viability, T/C: 7.2%
Second compound 1 µM, first compound 0.0001 µM
  viability, T/C: 96.2%
Second compound 1 µM, first compound 0.000316 µM
  viability, T/C: 91.5%
Second compound 1 µM, first compound 0.001 µM
  viability, T/C: 57.7%
Second compound 1 µM, first compound 0.00316 µM
  viability, T/C: 31.3%
Second compound 1 µM, first compound 0.01 µM
  viability, T/C: 15.5%
Second compound 1 µM, first compound 0.0316 µM
  viability, T/C: 6.85%
Second compound 3.16 µM, first compound 0.0001 µM
  viability, T/C: 101%
Second compound 3.16 µM, first compound 0.000316 µM
  viability, T/C: 91.6%
Second compound 3.16 µM, first compound 0.001 µM
  viability, T/C: 69.2%
Second compound 3.16 µM, first compound 0.00316 µM
  viability, T/C: 36.4%
Second compound 3.16 µM, first compound 0.01 µM
  viability, T/C: 16.1%
Second compound 3.16 µM, first compound 0.0316 µM
  viability, T/C: 6.84%
Second compound 10 µM, first compound 0.0001 µM
  viability, T/C: 95.8%
Second compound 10 µM, first compound 0.000316 µM
  viability, T/C: 84.4%
Second compound 10 µM, first compound 0.001 µM
  viability, T/C: 51%
Second compound 10 µM, first compound 0.00316 µM
  viability, T/C: 22.4%
Second compound 10 µM, first compound 0.01 µM
  viability, T/C: 16.2%
Second compound 10 µM, first compound 0.0316 µM
  viability, T/C: 7.46%
